# Results from ChEMBL document CHEMBL1144327, “Carbonic anhydrase inhibitors. Inhibition of the membrane-bound human and bovine isozymes IV with sulfonamides” (Bioorg Med Chem Lett, 2005).
# Molecular target: Carbonic anhydrase 4 (Homo sapiens, UniProt P22748)
# Sequence (P22748 whole entry): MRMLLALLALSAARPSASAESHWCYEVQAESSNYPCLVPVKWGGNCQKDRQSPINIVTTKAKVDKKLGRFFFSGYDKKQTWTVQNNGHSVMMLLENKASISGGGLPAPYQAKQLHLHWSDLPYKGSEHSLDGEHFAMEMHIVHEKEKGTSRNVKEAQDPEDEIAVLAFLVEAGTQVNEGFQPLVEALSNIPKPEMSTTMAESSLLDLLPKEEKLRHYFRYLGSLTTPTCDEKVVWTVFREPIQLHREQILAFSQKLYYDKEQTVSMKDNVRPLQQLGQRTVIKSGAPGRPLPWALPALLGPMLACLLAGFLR
# Description: Inhibitory activity against human carbonic anhydrase IV (hCAIV)
row,Structure (SMILES),Ki
1,Nc1ccc(S(=O)(=O)NCc2ccc(S(N)(=O)=O)cc2)cc1,84 nM
2,Nc1ccc(S(N)(=O)=O)cc1I,920 nM
3,Nc1ccc(S(N)(=O)=O)cc1Br,96 nM
4,Nc1cccc(S(N)(=O)=O)c1,7750 nM
5,Nc1ccc(S(N)(=O)=O)cc1F,910 nM
6,Nc1ccc(S(N)(=O)=O)cc1Cl,450 nM
7,NNc1ccc(S(N)(=O)=O)cc1,7700 nM
8,Cc1ccc(-c2cc(C(F)(F)F)nn2-c2ccc(S(N)(=O)=O)cc2)cc1 [CELECOXIB],880 nM
9,NCc1ccc(S(N)(=O)=O)cc1 [MAFENIDE],8600 nM
10,Nc1ccc(S(N)(=O)=O)cc1 [SULFANILAMIDE],9760 nM
11,CC1(C)O[C@@H]2[C@@H](CO[C@@]3(COS(N)(=O)=O)OC(C)(C)O[C@@H]23)O1 [TOPIRAMATE],4900 nM

# Molecular target: T1, Carbonic anhydrase 4 (Bos taurus, UniProt Q95323)
# T1 sequence (Q95323 whole entry): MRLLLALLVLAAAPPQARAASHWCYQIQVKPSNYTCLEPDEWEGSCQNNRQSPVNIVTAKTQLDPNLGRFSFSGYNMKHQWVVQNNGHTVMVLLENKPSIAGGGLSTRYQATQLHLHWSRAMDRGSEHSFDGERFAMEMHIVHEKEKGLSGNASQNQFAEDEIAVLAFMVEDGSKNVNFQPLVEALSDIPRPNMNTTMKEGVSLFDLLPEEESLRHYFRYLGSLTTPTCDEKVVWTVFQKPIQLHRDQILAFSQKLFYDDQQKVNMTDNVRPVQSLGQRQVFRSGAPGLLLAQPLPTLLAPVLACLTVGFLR
# Description: Inhibitory activity against bovine carbonic anhydrase IV (bCAIV)
row,Structure (SMILES),Ki
1,Nc1ccc(S(=O)(=O)NCc2ccc(S(N)(=O)=O)cc2)cc1,50 nM
2,"Nc1cc(C(F)(F)F)c(S(N)(=O)=O)cc1S(N)(=O)=O [2,4-DISULFAMYLTRIFLUOROMETHYLANILINE]",240 nM
3,Cc1ccc(-c2cc(C(F)(F)F)nn2-c2ccc(S(N)(=O)=O)cc2)cc1 [CELECOXIB],290 nM
